For orientation: logP means a log measure of how a compound divides between an organic and an aqueous phase. High values mean higher lipophilicity, low ones lower lipophilicity.

The structures appear in SMILES notation.

The compound `CNC(C)C(=O)NCc1cccnc1` (centres undefined) returned a logP of 0.05. With `CC(=O)NC(Cc1ccc(Cl)cc1)C(=O)NCc1ccccc1` (centres undefined), the logP turned out to be 3.72.

In turn, `CC(=O)NC(CCCNC(=N)N[N+](=O)[O-])C(=O)NCc1ccccc1` (centres undefined) displayed a logP of 0.45. In turn, `CC(=O)NC(C)C(=O)NCCC(C)C` (centres undefined) had a logP of 0.88. For `CC(C(=O)NCc1ccccc1)N(C)C` (centres undefined), the logP turned out to be 1.73. To `CC(=O)N[C@@H](Cc1c[nH]c2ccccc12)C(=O)NCc1ccccc1` belongs 2.17; to `CC(=O)N1CSCC1C(=O)NCc1ccccc1` (centres undefined), 1.29. The figure for `CC(NC(=O)OCc1ccccc1)C(=O)OCc1ccccc1` (centres undefined) is 3.84; for `CC(=O)NC(C)C(=O)NCC(C)C` (centres undefined) it is 0.56. The figure for `CC(=O)NCCCC(=O)NCc1ccccc1` is 1.01; for `CC(=O)NC(C)(C)C(=O)NCc1ccccc1` it is 1.32; for `CN[C@H](C)C(=O)NCc1ccc(F)cc1` it is 1.51. `CC(=O)N(C)CC(=O)NCc1ccccc1` registered a logP of 0.94. To `CN1CSCC1C(=O)NCc1ccccc1` (centres undefined) belongs 1.85; to `CNC(C)C(=O)NCc1ccco1` (centres undefined), -0.66.

`CC(=O)NC(CC(C)C)C(=O)NCc1ccccc1` (centres undefined) had a logP of 2.31. For the compound `CC(NC(=O)OCc1ccccc1)C(=O)NCc1ccccc1` (centres undefined), the logP was found to be 3.52. The figure for `O=C(NC(O)C(=O)O)OCc1ccccc1` (centres undefined) is 1.63. Regarding `CC(=O)N1CCC[C@@H]1C(=O)NCc1ccccc1`, the logP was 1.46.

`CCNC(C)C(=O)NCc1ccccc1` (centres undefined): the logP came to 1.71.

Turning to `O=C(NC(CCC1CCCCC1)C(=O)OCCC1CCCCC1)OCc1ccccc1` (centres undefined), the logP amounted to 6.39. For `CC(=O)N(C)C(C)C(=O)NCc1ccco1` (centres undefined), the logP is -0.55. The figure for `CC(=O)N(C)C(C)C(=O)NCc1ccccc1` (centres undefined) is 1.48; for `CC(=O)N(C)CCC(=O)NCc1ccccc1` it is 1.12. In turn, `CNCCC(=O)NCc1ccccc1` returned a logP of 1.01. In the case of `CC(=O)NCCC(=O)NCc1ccccc1`, the logP came out at 0.76. The figure for `CC(C(=O)NCc1ccccc1)N(C)C(=O)OC(C)(C)C` (centres undefined) is 2.94. In turn, `CN[C@H](C)C(=O)NCc1ccc(OC)cc1` showed a logP of 1.11. The figure for `CCCCNC(=O)C(C)NC(C)=O` (centres undefined) is 0.55.

The record behind these values is the SangsterLogP compilation.
